Measured values as given in ChEMBL document CHEMBL4251601 (Eur J Med Chem, 2018).

Assays:
U-87 MG [1] = experiment: Antitumor activity against luciferase-fused human U87MG cells orthotopically xenografted in nude mouse assessed as increase in mouse life span at 50 mg/kg, po qd for 5 weeks relative to control; assay type: functional, U-87MG ATCC; conditions: 840 h
[2] = biological target: Mitogen-activated protein kinase 8 (Homo sapiens) (UniProt P45983); experiment: Inhibition of recombinant human full length His-tagged JNK1 expressed in baculovirus expression system at 1 uM by Z'-Lyte assay relative to control
Mitogen-activated protein kinase 8 (Homo sapiens), sequence (P45983 whole entry): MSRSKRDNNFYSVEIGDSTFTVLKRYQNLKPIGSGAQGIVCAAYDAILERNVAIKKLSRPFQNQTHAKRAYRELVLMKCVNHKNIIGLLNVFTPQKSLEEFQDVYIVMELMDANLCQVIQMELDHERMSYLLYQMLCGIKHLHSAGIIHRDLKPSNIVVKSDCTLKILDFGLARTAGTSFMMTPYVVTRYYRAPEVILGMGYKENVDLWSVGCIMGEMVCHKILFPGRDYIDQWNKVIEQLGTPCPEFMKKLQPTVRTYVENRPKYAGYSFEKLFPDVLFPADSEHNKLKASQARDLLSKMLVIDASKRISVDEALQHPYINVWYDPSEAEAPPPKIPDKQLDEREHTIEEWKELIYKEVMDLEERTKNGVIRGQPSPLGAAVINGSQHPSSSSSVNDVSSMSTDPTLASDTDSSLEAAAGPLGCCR

[3] = biological target: RAC-gamma serine/threonine-protein kinase (Homo sapiens) (UniProt Q9Y243); experiment: Inhibition of recombinant full length human His-tagged AKT3 expressed in baculovirus expression system at 1 uM by TR-FRET assay relative to control
[4] = AUC (0 to infinity) in CD-1 mouse plasma at 10 mg/kg, po administered as single dose by LC-MS/MS analysis; assay type: ADME, organism-based; set-up: dose 10 mg/kg, time infinity, route oral
[5] = Half life in Sprague-Dawley rat at 2 mg/kg, iv administered as single dose by LC-MS/MS analysis; assay type: ADME, organism-based; conditions: in vivo
[6] = Half life in CD-1 mouse brain at 10 mg/kg, po administered as single dose by LC-MS/MS analysis; assay type: ADME, organism-based
[7] = biological target: Casein kinase I isoform alpha (Homo sapiens) (UniProt P48729); experiment: Inhibition of recombinant full length human GST-tagged CK1alpha expressed in baculovirus expression system at 1 uM by Z'-Lyte assay relative to control
Casein kinase I isoform alpha (Homo sapiens), sequence (P48729 2-337 limits assumed): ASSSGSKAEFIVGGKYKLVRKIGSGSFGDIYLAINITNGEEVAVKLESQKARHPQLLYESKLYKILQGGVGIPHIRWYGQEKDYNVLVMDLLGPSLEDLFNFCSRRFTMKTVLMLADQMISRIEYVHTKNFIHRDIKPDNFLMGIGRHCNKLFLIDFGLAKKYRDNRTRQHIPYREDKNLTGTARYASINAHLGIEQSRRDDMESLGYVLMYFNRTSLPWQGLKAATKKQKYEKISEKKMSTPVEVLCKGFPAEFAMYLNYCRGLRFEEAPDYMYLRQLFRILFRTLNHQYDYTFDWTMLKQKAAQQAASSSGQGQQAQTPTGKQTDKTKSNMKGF

[8] = biological target: Dual specificity protein kinase CLK1 (Homo sapiens) (UniProt P49759); experiment: Inhibition of recombinant human GST-tagged CLK1 expressed in Escherichia coli at 1 uM by Z'-Lyte assay relative to control
[9] = biological target: Glycogen synthase kinase-3 beta (Homo sapiens) (UniProt P49841); experiment: Inhibition of recombinant human full length His-tagged GSK3beta expressed in baculovirus expression system at 0.1 uM by Z'-Lyte assay relative to control
[10] = biological target: Serine/threonine-protein kinase MRCK beta (Homo sapiens) (UniProt Q9Y5S2); experiment: Inhibition of recombinant human His-tagged CDC42 BPB expressed in baculovirus expression system at 1 uM by Z'-Lyte assay relative to control
[11] = biological target: Mitogen-activated protein kinase 14 (Homo sapiens) (UniProt Q16539); experiment: Inhibition of recombinant human full length GST-tagged p38alpha expressed in Escherichia coli at 1 uM by Z'-Lyte assay relative to control
Mitogen-activated protein kinase 14 (Homo sapiens), sequence (Q16539 whole entry): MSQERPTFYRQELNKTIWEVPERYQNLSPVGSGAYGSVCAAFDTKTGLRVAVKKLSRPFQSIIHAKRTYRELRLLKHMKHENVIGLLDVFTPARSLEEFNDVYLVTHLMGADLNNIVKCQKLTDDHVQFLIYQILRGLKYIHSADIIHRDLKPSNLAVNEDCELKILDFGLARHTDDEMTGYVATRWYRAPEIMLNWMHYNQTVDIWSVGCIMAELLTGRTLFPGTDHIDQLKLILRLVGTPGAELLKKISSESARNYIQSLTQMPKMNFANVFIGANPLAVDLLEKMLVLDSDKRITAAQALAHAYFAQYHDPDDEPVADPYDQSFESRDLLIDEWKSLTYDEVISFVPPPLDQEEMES

[12] = biological target: MAP kinase-activated protein kinase 2 (Homo sapiens) (UniProt P49137); experiment: Inhibition of recombinant human full length His-tagged MK2 expressed in Escherichia coli at 1 uM by Z'-Lyte assay relative to control
[13] = biological target: Misshapen-like kinase 1 (Homo sapiens) (UniProt Q8N4C8); experiment: Inhibition of recombinant human GST-tagged MINK (1 to 320 residues) expressed in baculovirus expression system at 0.1 uM by Z'-Lyte assay relative to control
[14] = biological target: Tyrosine-protein kinase ITK/TSK (Homo sapiens) (UniProt Q08881); experiment: Inhibition of recombinant full length human GST-tagged ITK expressed in baculovirus expression system at 1 uM by TR-FRET assay relative to control
[15] = biological target: Mitogen-activated protein kinase kinase kinase 14 (Homo sapiens, UniProt Q99558); experiment: Inhibition of recombinant human GST-tagged NIK expressed in baculovirus expression system at 1 uM by Z'-Lyte assay relative to control
[16] = biological target: Tyrosine-protein kinase JAK3 (Homo sapiens, UniProt P52333); experiment: Inhibition of recombinant human GST-tagged JAK3 cytoplasmic domain (781 to 1124 residues) expressed in baculovirus expression system using ULight-JAK-1 peptide as substrate preincubated for 15 mins followed by ATP addition measured after 90 mins
[17] = Volume of distribution at steady state in ICR mouse at 2 mg/kg, iv administered as single dose by LC-MS/MS analysis; assay type: ADME, organism-based; conditions: in vivo, read-out: Vdss
[18] = biological target: Proto-oncogene tyrosine-protein kinase Src (Homo sapiens) (UniProt P12931); experiment: Inhibition of recombinant human full length His-tagged SRC expressed in baculovirus expression system at 1 uM by Z'-Lyte assay relative to control
U-87 MG [19] = experiment: Antiproliferative activity against human U87MG cells after 72 hrs by DAPI staining based assay; assay type: functional, cell-based, U-87MG ATCC
Mus musculus = experiment: Toxicity in nude mouse orthotopically xenografted with luciferase-fused human U87MG cells assessed as body weight loss at 3.125 to 25 mg/kg, po qd for 5 weeks; assay type: organism-based; conditions: in vivo, 840 h
[20] = biological target: Serine/threonine-protein kinase PAK 2 (Homo sapiens) (UniProt Q13177); experiment: Inhibition of recombinant human full length GST-tagged PAK2 expressed in baculovirus expression system at 0.1 uM by Z'-Lyte assay relative to control
[21] = biological target: Proto-oncogene tyrosine-protein kinase receptor Ret (Homo sapiens) (UniProt P07949); experiment: Inhibition of recombinant human GST-tagged RET cytoplasmic domain (658 to 1114 residues) expressed in baculovirus expression system at 1 uM by Z'-Lyte assay relative to control
[22] = biological target: Serine/threonine-protein kinase TAO2 (Homo sapiens) (UniProt Q9UL54); experiment: Inhibition of recombinant human GST-tagged TAOK2 expressed in baculovirus expression system at 0.1 uM by Z'-Lyte assay relative to control
[23] = tested on: Epidermal growth factor receptor (Homo sapiens), P00533 [L858R,T790M]; experiment: Inhibition of recombinant human GST-tagged EGFR T790M/L858R double mutant expressed in baculovirus expression system at 1 uM by TR-FRET assay relative to control
Epidermal growth factor receptor (Homo sapiens), P00533 [L858R,T790M], sequence (P00533 whole entry T790M/L858R, looked up): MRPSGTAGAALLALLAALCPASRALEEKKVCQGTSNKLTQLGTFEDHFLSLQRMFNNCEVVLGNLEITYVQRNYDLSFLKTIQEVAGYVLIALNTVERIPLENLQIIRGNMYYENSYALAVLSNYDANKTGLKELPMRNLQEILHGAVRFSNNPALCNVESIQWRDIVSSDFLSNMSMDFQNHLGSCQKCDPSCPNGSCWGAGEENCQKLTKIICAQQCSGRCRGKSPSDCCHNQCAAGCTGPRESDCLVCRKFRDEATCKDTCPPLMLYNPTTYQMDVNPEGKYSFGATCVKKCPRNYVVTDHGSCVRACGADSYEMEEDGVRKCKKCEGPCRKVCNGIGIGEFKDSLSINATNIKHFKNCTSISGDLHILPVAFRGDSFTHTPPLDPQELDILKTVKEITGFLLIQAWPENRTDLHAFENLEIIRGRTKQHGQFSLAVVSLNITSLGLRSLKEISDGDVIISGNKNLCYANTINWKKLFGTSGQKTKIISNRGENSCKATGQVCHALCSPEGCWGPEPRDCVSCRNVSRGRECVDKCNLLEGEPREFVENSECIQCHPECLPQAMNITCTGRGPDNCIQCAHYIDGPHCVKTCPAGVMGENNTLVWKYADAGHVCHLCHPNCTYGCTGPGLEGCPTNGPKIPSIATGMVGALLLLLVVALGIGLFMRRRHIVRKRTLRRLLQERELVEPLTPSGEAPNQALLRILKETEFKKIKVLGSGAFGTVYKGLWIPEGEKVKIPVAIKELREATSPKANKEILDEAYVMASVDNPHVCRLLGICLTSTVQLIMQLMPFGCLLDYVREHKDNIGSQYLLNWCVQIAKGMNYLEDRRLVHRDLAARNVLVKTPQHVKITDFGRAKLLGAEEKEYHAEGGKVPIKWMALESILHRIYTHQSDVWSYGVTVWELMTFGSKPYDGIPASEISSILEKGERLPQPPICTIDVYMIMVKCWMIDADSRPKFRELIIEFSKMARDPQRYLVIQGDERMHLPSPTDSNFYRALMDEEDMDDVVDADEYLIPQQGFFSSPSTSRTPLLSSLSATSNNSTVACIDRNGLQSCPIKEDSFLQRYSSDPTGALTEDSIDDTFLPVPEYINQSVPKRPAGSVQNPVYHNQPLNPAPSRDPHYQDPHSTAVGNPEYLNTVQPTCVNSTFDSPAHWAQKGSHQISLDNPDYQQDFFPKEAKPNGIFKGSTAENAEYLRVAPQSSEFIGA

[24] = biological target: Serine/threonine-protein kinase 10 (Homo sapiens) (UniProt O94804); experiment: Inhibition of LOK1 (unknown origin) at 1 uM by Z'-Lyte assay relative to control
Serine/threonine-protein kinase 10 (Homo sapiens), sequence (O94804 whole entry, looked up): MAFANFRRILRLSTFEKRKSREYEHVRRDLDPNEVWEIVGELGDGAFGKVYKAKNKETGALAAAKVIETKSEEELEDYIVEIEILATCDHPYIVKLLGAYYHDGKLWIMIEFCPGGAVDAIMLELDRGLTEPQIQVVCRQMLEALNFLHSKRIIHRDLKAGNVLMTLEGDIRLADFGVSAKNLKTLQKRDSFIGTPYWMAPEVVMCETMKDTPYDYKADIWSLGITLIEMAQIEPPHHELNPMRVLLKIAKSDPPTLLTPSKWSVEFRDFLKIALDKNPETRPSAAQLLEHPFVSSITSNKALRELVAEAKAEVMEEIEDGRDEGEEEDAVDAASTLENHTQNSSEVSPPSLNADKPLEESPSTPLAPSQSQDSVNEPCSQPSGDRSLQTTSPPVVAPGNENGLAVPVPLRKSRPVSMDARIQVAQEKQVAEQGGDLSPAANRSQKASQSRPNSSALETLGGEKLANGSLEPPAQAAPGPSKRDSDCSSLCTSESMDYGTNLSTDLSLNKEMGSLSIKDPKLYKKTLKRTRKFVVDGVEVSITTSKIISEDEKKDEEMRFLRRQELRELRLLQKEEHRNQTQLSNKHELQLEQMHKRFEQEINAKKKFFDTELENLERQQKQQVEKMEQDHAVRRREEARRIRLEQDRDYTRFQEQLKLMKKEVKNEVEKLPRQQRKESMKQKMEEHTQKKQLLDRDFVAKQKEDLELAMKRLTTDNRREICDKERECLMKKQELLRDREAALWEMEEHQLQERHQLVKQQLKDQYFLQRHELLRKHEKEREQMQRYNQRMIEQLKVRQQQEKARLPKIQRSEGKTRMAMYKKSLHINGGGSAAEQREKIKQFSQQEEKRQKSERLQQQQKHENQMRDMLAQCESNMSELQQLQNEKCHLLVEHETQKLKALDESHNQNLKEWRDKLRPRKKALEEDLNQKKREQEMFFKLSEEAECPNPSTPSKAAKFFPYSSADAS

[25] = biological target: Casein kinase II subunit alpha (Homo sapiens) (UniProt P68400); experiment: Inhibition of recombinant full length human His-tagged CK2alpha1 expressed in baculovirus expression system at 1 uM by Z'-Lyte assay relative to control
[26] = tested on: ALK tyrosine kinase receptor (Homo sapiens), Q9UM73 [C1156Y]; experiment: Inhibition of recombinant N-terminal GST-tagged human ALK cytoplasmic domain (1058 to 1620 residues) C1156Y mutant expressed in baculovirus expression system at 1 uM by TR-FRET assay relative to control
U-87 MG [27] = experiment: Antitumor activity against luciferase-fused human U87MG cells orthotopically xenografted in nude mouse assessed as increase in mouse life span at 25 mg/kg, po qd for 5 weeks relative to control; assay type: functional, U-87MG ATCC; conditions: 840 h
[28] = biological target: G protein-coupled receptor kinase 4 (Homo sapiens) (UniProt P32298); experiment: Inhibition of recombinant human full length GST-tagged GRK4 expressed in baculovirus expression system at 0.1 uM by Z'-Lyte assay relative to control
G protein-coupled receptor kinase 4 (Homo sapiens), sequence (P32298 whole entry, looked up): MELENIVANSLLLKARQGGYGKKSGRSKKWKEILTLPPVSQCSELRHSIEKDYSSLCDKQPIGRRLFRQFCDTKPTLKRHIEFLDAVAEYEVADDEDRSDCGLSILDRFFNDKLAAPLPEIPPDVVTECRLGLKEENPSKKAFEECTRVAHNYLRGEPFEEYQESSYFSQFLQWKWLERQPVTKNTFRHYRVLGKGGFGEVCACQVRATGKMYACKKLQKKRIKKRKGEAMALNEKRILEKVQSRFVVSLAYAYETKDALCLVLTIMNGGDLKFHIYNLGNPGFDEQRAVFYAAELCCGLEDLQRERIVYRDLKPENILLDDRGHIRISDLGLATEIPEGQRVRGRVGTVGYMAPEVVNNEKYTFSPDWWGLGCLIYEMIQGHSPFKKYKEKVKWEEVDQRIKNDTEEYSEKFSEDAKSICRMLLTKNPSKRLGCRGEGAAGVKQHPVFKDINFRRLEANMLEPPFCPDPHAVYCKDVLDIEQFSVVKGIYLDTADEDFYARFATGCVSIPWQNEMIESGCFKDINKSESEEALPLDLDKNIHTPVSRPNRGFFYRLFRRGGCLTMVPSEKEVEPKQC

[29] = biological target: PI3-kinase p110-alpha/p85-alpha (Homo sapiens) (UniProt P27986+P42336); experiment: Inhibition of recombinant full-length human N-terminal His6-tagged p110alpha/p85alpha expressed in baculovirus infected Sf21 cells at 1 uM by ADP-Glo assay relative to control
[30] = biological target: Phosphatidylinositol 4,5-bisphosphate 3-kinase catalytic subunit beta isoform (Homo sapiens) (UniProt P42338); experiment: Inhibition of PI3K beta (unknown origin) at 1 uM by ADP-Glo assay relative to control
Phosphatidylinositol 4,5-bisphosphate 3-kinase catalytic subunit beta isoform (Homo sapiens), sequence (P42338 whole entry, looked up, canonical isoform): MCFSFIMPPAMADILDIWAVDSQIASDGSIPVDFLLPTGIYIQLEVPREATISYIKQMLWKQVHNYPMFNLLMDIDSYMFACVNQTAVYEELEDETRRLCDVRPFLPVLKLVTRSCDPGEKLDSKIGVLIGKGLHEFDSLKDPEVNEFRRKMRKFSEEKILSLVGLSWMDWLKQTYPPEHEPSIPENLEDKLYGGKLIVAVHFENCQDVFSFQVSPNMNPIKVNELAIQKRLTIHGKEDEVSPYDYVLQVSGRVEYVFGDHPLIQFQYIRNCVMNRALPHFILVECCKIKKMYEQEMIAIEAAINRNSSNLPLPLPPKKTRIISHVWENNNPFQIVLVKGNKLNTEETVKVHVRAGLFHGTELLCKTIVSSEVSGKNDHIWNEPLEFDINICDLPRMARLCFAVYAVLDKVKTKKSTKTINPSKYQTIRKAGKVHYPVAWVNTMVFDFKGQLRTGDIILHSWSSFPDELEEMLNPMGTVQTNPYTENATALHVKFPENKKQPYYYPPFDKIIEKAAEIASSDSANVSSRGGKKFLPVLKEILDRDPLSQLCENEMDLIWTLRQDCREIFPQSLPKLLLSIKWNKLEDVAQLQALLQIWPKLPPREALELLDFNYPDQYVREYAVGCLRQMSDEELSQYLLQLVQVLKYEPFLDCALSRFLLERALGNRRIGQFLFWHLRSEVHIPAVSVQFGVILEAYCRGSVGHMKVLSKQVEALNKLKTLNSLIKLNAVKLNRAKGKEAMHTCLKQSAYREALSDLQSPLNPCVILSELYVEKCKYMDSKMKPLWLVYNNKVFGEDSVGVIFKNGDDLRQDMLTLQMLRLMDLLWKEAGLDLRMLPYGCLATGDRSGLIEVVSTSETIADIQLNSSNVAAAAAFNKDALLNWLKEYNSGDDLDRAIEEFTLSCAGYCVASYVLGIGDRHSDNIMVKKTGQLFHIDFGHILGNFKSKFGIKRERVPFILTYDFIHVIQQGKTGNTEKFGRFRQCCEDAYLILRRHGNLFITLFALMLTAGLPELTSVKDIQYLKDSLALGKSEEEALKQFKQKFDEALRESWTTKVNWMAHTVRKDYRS

SMILES: CC1=Nc2c(F)cc(-c3nc(Nc4ccc(C5CCN(C)CC5)cn4)ncc3F)cc2C12CCCC2 [CROZBACICLIB]
- ILS at 50 mg/kg (U-87 MG [1]): 162%
- inhibition [2]: 82%
- inhibition [3]: 25%
- AUC(0-inf) [4]: 9110 ng·h/mL
- half-life [5]: 7.1 h
- half-life [6]: 6.38 h
- inhibition [7]: 5%
- inhibition [8]: 99%
- inhibition [9]: 12%
- inhibition [10]: 68%
- inhibition [11]: -8%
- inhibition [12]: -1%
- inhibition [13]: 17%
- inhibition [14]: 3%
- inhibition [15]: 105%
- IC50 [16]: 154 nM
- Vd [17]: 17.8 L/kg
- inhibition [18]: 7%
- IC50 (U-87 MG [19]): 15.3 nM
- Activity (Mus musculus): Non-Toxic
- inhibition [20]: 2%
- inhibition [21]: 10%
- inhibition [22]: 26%
- inhibition [23]: 79%
- inhibition [24]: 81%
- inhibition [25]: 23%
- inhibition [26]: 28%
- ILS at 25 mg/kg (U-87 MG [27]): 103%
- inhibition [28]: 0%
- inhibition [29]: 4%
- inhibition [30]: 11%
